In patent US20050271676A1, “Inducing cellular immune responses to human immunodeficiency virus-1 using peptide and nucleic acid compositions” (Epimmune Inc., priority 1993, published 2005):
No end group written: not given here.

Tests used:
HLA-B51 (B*5101) = HLA-B51 (B*5101) (Homo sapiens, UniProt P01889, A329T/A93T/A95T/C349S/D138N/D201E/D98Y/E187L/E204Q/E69T/G107R/I218V/K202T/L105A/L119W/N104I/Q94N/R106L/R155S/R180L/S101N/S121T/S35A/S48A/V306I/V36M/Y195H/Y91F); assay: purified HLA class I binding assay, B51 (B*5101)
HLA-B*5401 = HLA-B*5401 (Homo sapiens, UniProt P01889, A329T/C349S/D138N/D201E/E176V/E187T/E204Q/E69G/I76V/K202T/L119W/R155S/R180L/S121T/S35A/S48A/V127L/V306I/V36M/Y140L); assay: biochemical
HLA-B*0702 = molecular target: T1, HLA-B*0702 (Homo sapiens, UniProt P01889); assay: purified HLA class I binding assay, B*0702
T1 construct: endogenous in cells; host or cells: GM3107

HLA-B*3501 = HLA-B*3501 (Homo sapiens, UniProt P01889, A329T/A93T/A95T/C349S/D201E/D98Y/E176V/E187L/E204Q/E69T/I218V/K202T/L119I/Q94N/R155S/R180L/S121R/S35A/S48A/T118I/V127L/V306I/V36M/Y140S/Y91F); assay: purified HLA class I binding assay, B*3501
HLA-B*5301 = HLA-B*5301 (Homo sapiens, UniProt P01889, A329T/A93T/A95T/C349S/D201E/D98Y/E176V/E187L/E204Q/E69T/G107R/I218V/K202T/L105A/L119I/N104I/Q94N/R106L/R155S/R180L/S101N/S121R/S35A/S48A/T118I/V127L/V306I/V36M/Y140S/Y91F); assay: purified HLA class I binding assay, B*5301
HLA-DRB1*0301 (DR3) = molecular target: T2, HLA-DRB1*0301 (DR3) (Homo sapiens, UniProt P01903+P01911, A100K/A102G/A103R/A169T/F55Y/I96L/K41T/L162R/M171V/P40S/Q125H/Q178H/Q39Y/R42S/S66N/T106N/T262R/W38E/Y61H); assay: purified HLA class II binding assay, DRB1*0301 (DR3), pH 4.5
T2 construct: endogenous in cells; host or cells: MAT

HLA-DRB1*0401 (DR4w4) = molecular target: T3, HLA-DRB1*0401 (DR4w4) (Homo sapiens, UniProt P01903+P01911, A100K/A169T/F76Y/I96L/K127E/L162R/M171V/N62H/P40V/Q125Y/R42H/S133A/S149N/S66Y/V115G/V209L/W38E); assay: purified HLA class II binding assay, DRB1*0401 (DR4w4)
T3 construct: endogenous in cells; host or cells: Preiss

HLA-DRB1*0405 (DR4w15) = HLA-DRB1*0405 (DR4w15) (Homo sapiens, UniProt P01903+P01911, A100R/A169T/D86S/F76Y/I96L/K127E/L162R/M171V/N62H/P40V/Q125Y/R42H/S133A/S149N/S66Y/V115G/V209L/W38E); assay: purified HLA class II binding assay, DRB1*0405 (DR4w15)
HLA-DRB1*0701 (DR7) = molecular target: T4, HLA-DRB1*0701 (DR7) (Homo sapiens, UniProt P01903+P01911, A100R/A102G/A103Q/D57E/D86V/E43K/F76Y/K127E/L162R/M171V/P40G/Q125H/Q99D/R33Q/R42Y/R54Q/S133A/S66F/T210M/V115G/Y107V/Y59L/Y89S); assay: biochemical; assay type: binding
T4 construct: endogenous in cells; host or cells: Pitout

HLA-DRB1*0802 (DR8w2) = molecular target: T5, HLA-DRB1*0802 (DR8w2) (Homo sapiens, UniProt P01903+P01911, A100R/A103L/A169T/F76Y/H45Y/I96F/K41T/L162R/M171V/P40S/Q125H/Q178H/Q39Y/Q99D/R218S/R42G/S66Y/V115G/W38E); assay: biochemical; assay type: binding
T5 construct: endogenous in cells

HLA-DRB1*0901 (DR9) = molecular target: T6, HLA-DRB1*0901 (DR9) (Homo sapiens, UniProt P01903+P01911, A100R/A103E/D57H/D86V/F55Y/F60I/F76Y/I96F/K127E/L162R/M171V/P40D/Q125H/Q99R/R33Q/R42F/S133A/S66N/T210M/V115G/W38K/Y107V/Y59G/Y89S); assay: biochemical; assay type: binding
T6 construct: endogenous in cells

HLA-DRB1*1101 (DR5w11) = molecular target: T7, HLA-DRB1*1101 (DR5w11) (Homo sapiens, UniProt P01903+P01911, A100R/A169T/A87E/I96F/K41T/L162R/M171V/P40S/Q125H/Q178H/Q39Y/Q99D/R42S/S66Y/T262R/V115G/W38E); assay: biochemical; assay type: binding
T7 construct: endogenous in cells

HLA-DRB1*1201 (DR5w12) = molecular target: T8, HLA-DRB1*1201 (DR5w12) (Homo sapiens, UniProt P01903+P01911, A100R/A169T/D57E/D86V/F55L/H45Y/K41T/L162R/M171V/P40S/Q125H/Q178H/Q39Y/Q99D/R42G/S66L/T262R/V114A/V67L/W38E/Y59H/Y61H/Y89S); assay: purified HLA class II binding assay, DRB1*1201 (DR5w12)
T8 construct: endogenous in cells

HLA-DRB1*1302 (DR6w19) = HLA-DRB1*1302 (DR6w19) (Homo sapiens, UniProt P01903+P01911, A100E/A169T/K41T/L162R/M171V/P40S/Q125H/Q178H/Q39Y/Q99D/R42S/S66N/T262R/V115G/W38E/Y61H); assay: purified HLA class II binding assay, DRB1*1302 (DR6w19)
HLA-DRB5*0101 (DR2w2β2) = molecular target: T9, HLA-DRB5*0101 (DR2w2β2) (Homo sapiens, UniProt P01903+Q30154); assay: biochemical; assay type: binding
T9 construct: expressed in transfected cells

HLA-DRB1*1501 (DR2w2β1) = molecular target: T10, HLA-DRB1*1501 (DR2w2β1) (Homo sapiens, UniProt P01903+P01911); assay: purified HLA class II binding assay, DRB1*1501 (DR2w2β1)
T10 construct: expressed in transfected cells

[1] = HIV DR super motif peptides, unit not given

T2 sequence (P01903 26-254 partner, other chains not shown): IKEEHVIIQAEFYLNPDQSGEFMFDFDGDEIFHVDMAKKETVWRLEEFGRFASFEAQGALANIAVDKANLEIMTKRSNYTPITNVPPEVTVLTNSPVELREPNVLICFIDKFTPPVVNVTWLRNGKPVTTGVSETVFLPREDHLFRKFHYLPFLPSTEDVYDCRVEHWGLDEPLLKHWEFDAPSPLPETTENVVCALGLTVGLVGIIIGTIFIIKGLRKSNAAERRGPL
T3 sequence (P01903 26-254 partner, other chains not shown): as above
T7 sequence (P01903 26-254, other chains not shown): as the sequence (P01903 26-254 partner, other chains not shown) above

Row | Compound | IC50 (HLA-B51 (B*5101)) [nM] | IC50 (HLA-B*5401) [nM] | IC50 (HLA-B*0702) [nM] | IC50 (HLA-B*3501) [nM] | IC50 (HLA-B*5301) [nM] | IC50 (HLA-DRB1*0301 (DR3)) [nM] | IC50 (HLA-DRB1*0401 (DR4w4)) [nM] | IC50 (HLA-DRB1*0405 (DR4w15)) [nM] | IC50 (HLA-DRB1*0701 (DR7)) [nM] | IC50 (HLA-DRB1*0802 (DR8w2)) [nM] | IC50 (HLA-DRB1*0901 (DR9)) [nM] | IC50 (HLA-DRB1*1101 (DR5w11)) [nM] | IC50 (HLA-DRB1*1201 (DR5w12)) [nM] | IC50 (HLA-DRB1*1302 (DR6w19)) [nM] | also measured
1 | CC(C)C[C@H](NC(=O)[C@H](CO)NC(=O)[C@H](CCCNC(=N)N)NC(=O)[C@H](CC(C)C)NC(=O)[C@H](CO)NC(=O)[C@H](C)NC(=O)[C@H](CC(C)C)NC(=O)[C@@H]1CCCN1C(=O)[C@@H](N)Cc1ccc(O)cc1)C(=O)N[C@@H](Cc1ccccc1)C(=O)O [15.0268] | 39.3 | 714 |  |  |  |  |  |  |  |  |  |  |  |  | 
2 | CC(C)C[C@H](NC(=O)[C@@H]1CCCN1C(=O)[C@@H](NC(=O)[C@H](CCC(N)=O)NC(=O)[C@@H]1CCCN1C(=O)[C@H](CCCNC(=N)N)NC(=O)[C@@H](NC(=O)[C@@H]1CCCN1C(=O)[C@@H](N)Cc1ccccc1)C(C)C)C(C)C)C(=O)O [1146.01] | 11.6 |  | 15.7 | 43 | 482 |  |  |  |  |  |  |  |  |  | 
3 | CC[C@H](C)[C@H](NC(=O)[C@H](C)NC(=O)[C@@H]1CCCN1C(=O)[C@@H](N)CO)C(=O)N[C@@H](Cc1ccccc1)C(=O)N[C@@H](CCC(N)=O)C(=O)N[C@@H](CO)C(=O)N[C@@H](CO)C(=O)N[C@@H](CCSC)C(=O)N[C@H](C(=O)N[C@@H](CCCCN)C(=O)N[C@H](C(=O)N[C@@H](CC(C)C)C(=O)N[C@@H](CCC(=O)O)C(=O)N1CCC[C@H]1C(=O)O)[C@@H](C)CC)[C@@H](C)O [Peptide 27.0344] |  |  |  |  |  | > 20000 | 3570 | 109 | 68 | 3270 | 33 | 741 | > 20000 | 13 | 
4 | CC(C)C[C@H](NC(=O)[C@H](CCCCN)NC(=O)[C@@H](NC(=O)[C@H](CC(C)C)NC(=O)[C@@H]1CCCN1C(=O)[C@@H]1CCCN1C(=O)[C@@H](NC(=O)[C@H](CC(N)=O)NC(=O)[C@@H](NC(=O)[C@H](Cc1ccccc1)NC(=O)[C@H](CCC(=O)O)NC(=O)[C@@H](N)Cc1c[nH]c2ccccc12)C(C)C)[C@@H](C)O)C(C)C)C(=O)N[C@@H](Cc1c[nH]c2ccccc12)C(=O)N[C@@H](Cc1ccc(O)cc1)C(=O)N[C@@H](CCC(N)=O)C(=O)O [Peptide 27.0354] |  |  |  |  |  |  | 28 | 20 | 15 | 350 | 39 |  | 1360 | 90 | IC50 (HLA-DRB5*0101 (DR2w2β2)): 2.1 nM
5 | CC[C@H](C)[C@H](NC(=O)CNC(=O)[C@H](CCCCN)NC(=O)[C@H](Cc1c[nH]cn1)NC(=O)[C@H](C)NC(=O)[C@@H]1CCCN1C(=O)[C@@H](NC(=O)[C@H](Cc1c[nH]c2ccccc12)NC(=O)[C@H](C)NC(=O)[C@H](CC(C)C)NC(=O)[C@H](Cc1ccc(O)cc1)NC(=O)[C@@H](NC(=O)[C@H](CCCCN)NC(=O)[C@@H](N)CCC(=O)O)C(C)C)C(C)C)C(=O)NCC(=O)O [Peptide 27.0361] |  |  |  |  |  | 3230 | 9.3 | 27 | 18 | 31 | 144 | 37 | 6480 | 3500 | IC50 (HLA-DRB1*1501 (DR2w2β1)): 21 nM; IC50 (HLA-DRB5*0101 (DR2w2β2)): 4.9 nM
6 | CPKVSFEPI [1296.02] |  | 100 | 100 | 5140 | 2450 |  |  |  |  |  |  |  |  |  | 
7 | FPISPIETV [Peptide 1261.01] |  | 9.1 | 3440 | 1040 |  |  |  |  |  |  |  |  |  |  | 
8 | HPVHAGPIA [1292.13] |  | 4.3 | 50 | 11.6 | 4430 |  |  |  |  |  |  |  |  |  | 
9 | HSNWRAMASDFNLPP [Peptide 27.0364] |  |  |  |  |  | > 20000 | 11 | 15 | 472 | 1960 | 872 | 95 | > 20000 | 4370 | IC50 (HLA-DRB1*1501 (DR2w2β1)): > 20000 nM
10 | IPYNPQSQGVV [1296.03] | 120 | 66.7 |  | 72000 | 46500 |  |  |  |  |  |  |  |  |  | 
11 | QKQITKIQNFRVYYR [Peptide 27.0377] |  |  |  |  |  | > 20000 |  | 49 | 25 | 75 | 577 | 53 | 124 | 25 | IC50 (HLA-DRB1*1501 (DR2w2β1)): 3.4 nM; IC50 (HLA-DRB5*0101 (DR2w2β2)): 80 nM
12 | QQHLLQLTVWGTKQL |  |  |  |  |  |  |  |  |  |  |  |  |  |  | DR3 binding (HLA-DRB1*0301 (DR3); [1]): −0.0043; DR4w4 binding (HLA-DRB1*0401 (DR4w4); [1]): 0.0330; DR4w15 binding (HLA-DRB1*0405 (DR4w15); [1]): 0.2700; DR7 binding (HLA-DRB1*0701 (DR7)): 0.3900; DR8w2 binding (HLA-DRB1*0802 (DR8w2)): 0.0210; DR9 binding (HLA-DRB1*0901 (DR9)): 0.5100; DR5w11 binding (HLA-DRB1*1101 (DR5w11)): 0.0036; DR5w12 binding (HLA-DRB1*1201 (DR5w12); [1]): 0.4900; DR6w19 binding (HLA-DRB1*1302 (DR6w19); [1]): 0.0180; DR2 wβ1 binding (HLA-DRB1*1501 (DR2w2β1); [1]): 0.7500; DR2w2β2 binding (HLA-DRB5*0101 (DR2w2β2)): 0.0580
13 | VPLQLPPL [29.0028] | 0.8 | 270 |  | 6000 | 46500 |  |  |  |  |  |  |  |  |  | 
